Reference: the supplement of paper PMC12698765
Counter-ions that a name gives are not always drawn. ± gives the standard deviation of the averaged measurements.

Columns and labels:
[1] = test system: 409B2 hiPSC (iCRISPR Cas9, FRMD7 editing); test: cell survival relative to solvent control (fold (ratio to mock)); higher = more surviving cells
Protocol: (§1)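 Subset screen of 55 drugs tested at 5 concentrations around the effective screening dose, in 409B2 iCRISPR Cas9 hiPSCs editing FRMD7 with a ssDNA donor. Drugs were applied for 24 h. Viability was read by resazurin and editing outcomes by amplicon sequencing (HDR, NHEJ <2 bp microhomology, MMEJ ≥2 bp microhomology). Values are relative to solvent mock controls; two biological replicates.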

[2] = test system: 409B2 hiPSC (iCRISPR Cas9, FRMD7 editing); test: NHEJ-attributed indel frequency relative to solvent control (fold (ratio to mock)); higher = more NHEJ outcomes
Protocol: as §1

[3] = test system: 409B2 hiPSC (iCRISPR Cas9, FRMD7 editing); test: MMEJ-attributed deletion frequency relative to solvent control (fold (ratio to mock)); higher = more MMEJ outcomes
Protocol: as §1

[4] = test system: 409B2 hiPSC (iCRISPR Cas9, FRMD7 editing); test: HDR (precise edit) frequency relative to solvent control (fold (ratio to mock)); higher = more homology-directed repair outcomes
Protocol: as §1

| Compound | cell survival ([1]; 2000 nM) | cell survival ([1]; 5000 nM) | cell survival ([1]; 10000 nM) | cell survival ([1]; 20000 nM) | cell survival ([1]; 50000 nM) | NHEJ-attributed indel frequency ([2]; 2000 nM) | NHEJ-attributed indel frequency ([2]; 5000 nM) | NHEJ-attributed indel frequency ([2]; 10000 nM) | NHEJ-attributed indel frequency ([2]; 20000 nM) | NHEJ-attributed indel frequency ([2]; 50000 nM) | MMEJ-attributed deletion frequency ([3]; 2000 nM) | MMEJ-attributed deletion frequency ([3]; 5000 nM) | MMEJ-attributed deletion frequency ([3]; 10000 nM) | MMEJ-attributed deletion frequency ([3]; 20000 nM) | MMEJ-attributed deletion frequency ([3]; 50000 nM) | HDR ([4]; 2000 nM) | HDR ([4]; 5000 nM) | HDR ([4]; 10000 nM) | HDR ([4]; 20000 nM) | HDR ([4]; 50000 nM) | further results |
| --- | --- | --- | --- | --- | --- | --- | --- | --- | --- | --- | --- | --- | --- | --- | --- | --- | --- | --- | --- | --- | --- |
| CC(CCc1ccccc1)NCC(O)c1ccc(O)c(C(N)=O)c1 (stereo not given) [Labetalol HCl] (in DMSO) | 0.953 | 1.39 | 1.08 | 1.14 | 1.15 | 0.988 ± 0.029 | 1.02 ± 0.0051 | 1.05 ± 0.018 | 1.093 ± 0.0077 | 1.0876 ± 0.00036 | 1.04 ± 0.027 | 0.975 ± 0.13 | 1.13 ± 0.15 | 1.08 ± 0.034 | 1.25 ± 0.049 | 1.05 ± 0.063 | 0.878 ± 0.059 | 0.834 ± 0.025 | 0.757 ± 0.049 | 0.756 ± 0.028 | – |
| CC(=O)O[C@@]12CO[C@@H]1C[C@@H](O)[C@@]1(C)C(=O)[C@H](O)C3=C(C)[C@@H](O)C[C@@](O)([C@@H](OC(=O)c4ccccc4)[C@H]21)C3(C)C [10-DAB (10-Deacetylbaccatin)] (in DMSO) | 0.00356 | 0.00663 | – | – | – | 0.488 ± 0.08 | 0.522 ± 0.1 | – | – | – | 0.561 ± 0.18 | 0.4879 ± 0.0029 | – | – | – | 0.304 ± 0.013 | 0.339 ± 0.06 | – | – | – | cell survival ([1]; 200 nM): 0.914; cell survival ([1]; 500 nM): 1.06; cell survival ([1]; 1000 nM): 0.177; NHEJ-attributed indel frequency ([2]; 200 nM): 0.906 ± 0.017; NHEJ-attributed indel frequency ([2]; 500 nM): 0.983 ± 0.014; NHEJ-attributed indel frequency ([2]; 1000 nM): 0.918 ± 0.075; MMEJ-attributed deletion frequency ([3]; 200 nM): 1.06 ± 0.14; MMEJ-attributed deletion frequency ([3]; 500 nM): 1.02 ± 0.049; MMEJ-attributed deletion frequency ([3]; 1000 nM): 0.936 ± 0.083; HDR ([4]; 200 nM): 1.063 ± 0.0036; HDR ([4]; 500 nM): 1 ± 0.049; HDR ([4]; 1000 nM): 0.816 ± 0.17 |
| CC(=O)c1c(C)c2cnc(Nc3ccc(N4CCNCC4)cn3)nc2n(C2CCCC2)c1=O (in DMSO) | 0.475 | 0.185 | 0.0327 | -0.0205 | 0.00851 | 0.989 ± 0.048 | 0.993 ± 0.073 | 0.46 ± 0.24 | 0.127 ± 0.018 | 0.12 ± 0.036 | 0.907 ± 0.03 | 1.19 ± 0.17 | 0.73 ± 0.046 | 0.458 ± 0.082 | 0.244 ± 0.076 | 1.01 ± 0.011 | 0.587 ± 0.11 | 0.152 ± 0.029 | 0.0501 ± 0.0028 | 0.0996 ± 0.032 | – |
| C[C@@H]1O[C@@H](O[C@@H]2[C@@H](O)[C@H](OCCc3ccc(O)c(O)c3)O[C@H](CO)[C@H]2OC(=O)/C=C/c2ccc(O)c(O)c2)[C@H](O)[C@H](O)[C@H]1O [Verbascoside] (in DMSO) | – | – | – | – | – | – | – | – | – | – | – | – | – | – | – | – | – | – | – | – | cell survival ([1]; 20 nM): 0.884; cell survival ([1]; 50 nM): 1.1; cell survival ([1]; 100 nM): 0.99; cell survival ([1]; 200 nM): 1.11; cell survival ([1]; 500 nM): 1.04; NHEJ-attributed indel frequency ([2]; 20 nM): 0.964 ± 0.014; NHEJ-attributed indel frequency ([2]; 50 nM): 1.01 ± 0.033; NHEJ-attributed indel frequency ([2]; 100 nM): 0.994 ± 0.03; NHEJ-attributed indel frequency ([2]; 200 nM): 1 ± 0.019; NHEJ-attributed indel frequency ([2]; 500 nM): 0.975 ± 0.016; MMEJ-attributed deletion frequency ([3]; 20 nM): 1.01 ± 0.02; MMEJ-attributed deletion frequency ([3]; 50 nM): 0.993 ± 0.082; MMEJ-attributed deletion frequency ([3]; 100 nM): 1.06 ± 0.06; MMEJ-attributed deletion frequency ([3]; 200 nM): 0.976 ± 0.13; MMEJ-attributed deletion frequency ([3]; 500 nM): 1.02 ± 0.087; HDR ([4]; 20 nM): 1.1 ± 0.064; HDR ([4]; 50 nM): 1.13 ± 0.017; HDR ([4]; 100 nM): 1.024 ± 0.0069; HDR ([4]; 200 nM): 1.04 ± 0.044; HDR ([4]; 500 nM): 1.11 ± 0.012 |
| CC[N+](CC)(CC)CC [Tetraethylammonium chloride] (in EtOH) | – | – | – | – | – | – | – | – | – | – | – | – | – | – | – | – | – | – | – | – | cell survival ([1]; 0.2 nM): 0.933; cell survival ([1]; 0.5 nM): 1.09; cell survival ([1]; 1 nM): 0.954; cell survival ([1]; 2 nM): 0.979; cell survival ([1]; 5 nM): 1.03; NHEJ-attributed indel frequency ([2]; 0.2 nM): 0.99 ± 0.026; NHEJ-attributed indel frequency ([2]; 0.5 nM): 0.996 ± 0.018; NHEJ-attributed indel frequency ([2]; 1 nM): 0.99607 ± 0.00072; NHEJ-attributed indel frequency ([2]; 2 nM): 1.007 ± 0.01; NHEJ-attributed indel frequency ([2]; 5 nM): 0.9965 ± 0.0079; MMEJ-attributed deletion frequency ([3]; 0.2 nM): 1.05 ± 0.022; MMEJ-attributed deletion frequency ([3]; 0.5 nM): 1.03 ± 0.11; MMEJ-attributed deletion frequency ([3]; 1 nM): 0.964 ± 0.1; MMEJ-attributed deletion frequency ([3]; 2 nM): 1.053 ± 0.0031; MMEJ-attributed deletion frequency ([3]; 5 nM): 0.9894 ± 0.0011; HDR ([4]; 0.2 nM): 1.11 ± 0.15; HDR ([4]; 0.5 nM): 1.09 ± 0.19; HDR ([4]; 1 nM): 1.02 ± 0.019; HDR ([4]; 2 nM): 0.961 ± 0.11; HDR ([4]; 5 nM): 0.922 ± 0.038 |
| Cc1ccc(NC(=O)c2ccc(CN3CC[C@H](N(C)C)C3)c(C(F)(F)F)c2)cc1Nc1nccc(-c2cncnc2)n1 [Bafetinib (INNO-406)] (in DMSO) | 1.07 | 1.36 | 0.818 | 0.096 | 0.0107 | 0.9931 ± 0.002 | 1.004 ± 0.0057 | 1.06 ± 0.025 | 1.03 ± 0.11 | 0.525 | 1.04 ± 0.012 | 0.89 ± 0.082 | 1.13 ± 0.045 | 1.32 ± 0.11 | 0.621 | 1.04 ± 0.053 | 1.066 ± 0.0049 | 1.03 ± 0.1 | 0.775 ± 0.27 | 0.282 | – |
